Molecules are shown by their SMILES.

Format in all cases: physicochemical
Data set [1] is described as follows: competitive slurry experiments (XRPD of remaining solids). As to conditions: 25 °C, 24 h. Here is the method:
Two different types of slurry experiments may be performed, i.e., competitive and noncompetitive slurry experiments. Competitive slurry experiments are performed by mixing excess amounts of non-solvated polymorphic forms together in different solvents and agitating the mixture isothermally. These types of slurry experiments may be used to determine which form is more thermodynamically stable (under the conditions tested).
When competitive slurry experiments are performed, the nucleation step is generally bypassed. Because the two (or more) forms placed into contact with the solvent have different solubilities, particles of the form with the lower solubility grow at the expense of the more soluble form. This occurs since the more soluble form is saturated, and the less soluble form is supersaturated.
(§1) In general, slurry experiments are performed by agitating approximately 0.01 g to 2.5 g of material in 0.5 mL to 50 mL of slurry solvent. Uniform agitation and temperature control are accomplished using, e.g., Reacti-Therm heating modules and small Teflon coated stir bars. The duration of the slurry experiments is often around 24 h (although in some cases the experiments may be continued for several weeks). At the end of the slurry experiment, remaining undissolved solids are collected by vacuum filtration. To avoid inducing any type of physical change, the solids are not subjected to additional drying before the XRPD analysis.
In addition to the pure solvent noncompetitive slurry experiments performed, three competitive slurry experiments in Table 8 are performed at room temperature. These slurry experiments are composed of an approximately 50/50 mixture of Form I and Form II solids. Three different solvents are used to perform the competitive slurry experiments: DCM, i-PrOAc and EtOAc.

The nature of data set [2]: drying of crystals, crystal form checked by XRPD. The method, then:
Furthermore, TGA and ^1H-NMR indicate that Form I crystals may also contain approximately 4 wt-% of ethanol (FIG. 1A).
In accordance with the TG data, after a few minutes at 125° C. in the KF oven, most of the weight loss from ethanol and water is complete affording Form I crystals in an anhydrous form (FIG. 1B). […] A comparison of the calorimetric behavior of the anhydrous Form I crystals and the Form I crystals containing residual solvents (“undried”) is summarized in Table 1:
Form II crystal form may be obtained in a hydrated form or in an anhydrous form. For example, slow crystallization from lower alcohols such as MeOH and EtOH in the presence of residual water provides hydrated Form II crystals.

A short description of data set [3]: non-competitive slurry experiments (XRPD of remaining solids). As to conditions: for Final Form (XRPD): 4 h. The method, then: In an alternative aspect of the present invention, solid forms of binodenoson may be suspended in a suitable solvent at a temperature of at least 10° C., preferably at a temperature ranging from about 25° C. to about 60° C. Under suitable conditions, a suspension/slurry results in which particles of solid are dispersed, and remain incompletely dissolved in the solvent. Preferably, the solids are maintained in a state of suspension by agitation, e.g., by shaking or stirring. The suspension/slurry is then kept at a temperature of 10° C. or higher, e.g., at a temperature ranging from about 25° C. to about 60° C., for a time sufficient to effect transformation of the starting solids into product crystals. The product crystals may then be isolated and dried using conventional methods in the art. In the presence of water, all crystal forms of binodenoson will convert to Form II hydrate.
Noncompetitive slurry experiments are useful for identifying solvent mediated conditions useful for converting one crystalline form to another. In these experiments, excess material of a single crystal form is mixed with a solvent under isothermal conditions. These experiments rely on differences in solubility of the different polymorphic forms. […] Essentially, when a polymorph is suspended in a suitable solvent, a saturated solution phase (eventually) results. The solution phase is saturated with respect to the polymorphic form dissolved.
The results of these experiments often depend on nucleation kinetics and the presence of impurities that may inhibit nuclei growth of other stable crystalline modifications.
as §1

The nature of data set [4]: moisture sorption analysis. As to conditions: relative humidity of about 94%, 14 days, 25° C.
Data set [5] is described as follows: solubility studies in EtOH. The method, then:
In the current set of results, Form I crystals readily transforms into Form II crystals in EtOAc at 60° C. for 4 h (experiment No. 7). […] Thus, Form I appears to convert to Form II, but really converts to Form II hydrate. […] Thus, in the presence of residual water, Form II is obtained in the isostructural hydrate form, whereas in a completely anhydrous system, Form I results.

On to `Nc1nc(NN=CC2CCCCC2)nc2c1ncn2[C@@H]1O[C@H](CO)C(O)C1O` (stereo partly drawn) [Form I & II, 2-{2-[(cyclohexyl)methylene]-hydrazino}adenosine], for which the “Final Form (XRPD)” value in data set [1] (experiment No. 11: DCM), in data set [1] (experiment No. 12: i-PrOAc) and in data set [1] (experiment No. 13: EtOAc) was “II^b” in each case.

In the case of `Nc1nc(NN=CC2CCCCC2)nc2c1ncn2[C@@H]1O[C@H](CO)[C@@H](O)[C@H]1O` [Form I, 2-{2-[(cyclohexyl)methylene]-hydrazino}adenosine], the “change of crystalline form upon drying (XRPD)” value in data set [2] (drying under nitrogen, 125° C. in the KF oven) is “does not change significantly”. Besides, the “Final Form (XRPD)” value in data set [3] (experiment No. 1: EtOAc, 40 °C) was “amorphous”; in data set [3] (experiment No. 2: EtOH, 40 °C), “all dissolved”; in data set [3] (experiment No. 4: i-Pr2O, 40 °C), “amorphous”; in data set [3] (experiment No. 5: MeOH, 40 °C), “all dissolved”; in data set [3] (experiment No. 7: EtOAc, 60 °C), “II^b”. Also, in data set [4], the hygroscopicity entry is reported as “non-hygroscopic”. Also, the “thermodynamic stability relative to Form II” value in data set [5] (when water is not present, from solubilities) is listed as “thermodynamically more stable than Form II”.

Consider `Nc1nc(NN=CC2CCCCC2)nc2c1ncn2[C@@H]1O[C@H](CO)[C@@H](O)[C@H]1O` [Form II hydrate, 2-{2-[(cyclohexyl)methylene]-hydrazino}adenosine], for which the “change of XRPD pattern upon drying” value in data set [2] (drying the hydrated crystals) was “does not change the XRPD pattern”. The “solubility of the isostructural hydrate” value in data set [5] (presence of residual water, deduced) is given as “lower solubility than that of Form I”.

Regarding `Nc1nc(NN=CC2CCCCC2)nc2c1ncn2[C@@H]1O[C@H](CO)[C@@H](O)[C@H]1O` [Form II, 2-{2-[(cyclohexyl)methylene]-hydrazino}adenosine], the “solubility compared with Form I” value in data set [5] (anhydrous Forms I and II compared in EtOH) is reported as “much higher solubility”. For the same compound, in data set [5] (dry EtOH), the “behaviour during solubility studies” value was “completely dissolve and recrystallize as Form I”.

In the case of `Nc1nc(NN=CC2CCCCC2)nc2c1ncn2[C@@H]1O[C@H](CO)[C@@H](O)[C@H]1O` [Form V, 2-{2-[(cyclohexyl)methylene]-hydrazino}adenosine], the “stability relative to Form I” value in data set [3] (at 40° C., from experiment No. 6 (DCM slurry)) is “more stable than Form I”.

In the case of `Nc1nc(NN=CC2CCCCC2)nc2c1ncn2[C@@H]1O[C@H](CO)[C@@H](O)[C@H]1O` [anhydrous Form I, 2-{2-[(cyclohexyl)methylene]-hydrazino}adenosine], in data set [4], the “crystal form after moisture sorption analysis” value is recorded as “remains the same” and the “weight gain in moisture sorption analysis” value was “approximately 1.3%”.

For the origin of these results see patent publication US20130136693A1, “Crystal Forms of 2--Adenosine” (King Pharmaceuticals Research and Development, Inc, priority 2008, published 2013).
